Values joined by “and” are separate entries in the source; they are usually repeats but may differ in a detail not shown here. Identical values can stand only once.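 These data come from cells grown in 96-well plates and exposed to compound for 48 hours at five concentrations. GI50 = concentration required for 50% inhibition of growth. TGI denotes the concentration required for complete inhibition of growth.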
What was measured:
Experiment in all cases: NCI-60 cell line screen, 48 h
[1] = test system: 786-0 renal
[2] = test system: ACHN renal
[3] = test system: CAKI-1 renal
[4] = test system: COLO 205 colon
[5] = test system: DMS 114 small cell lung
[6] = test system: DMS 273 small cell lung
[7] = test system: EKVX NSCLC
[8] = test system: HCC-2998 colon
[9] = test system: HCT-15 colon
[10] = test system: HOP-18 NSCLC
[11] = test system: HT29 colon
[12] = test system: K-562 leukemia
[13] = test system: KM12 colon
[14] = test system: KM20L2 colon
[15] = test system: LXFL 529 NSCLC
[16] = test system: M14 melanoma
[17] = test system: M19-MEL melanoma
[18] = test system: MALME-3M melanoma
[19] = test system: MOLT-4 leukemia
[20] = test system: NCI-H226 lung
[21] = test system: NCI-H23 lung
[22] = test system: NCI-H460 lung
[23] = test system: NCI-H522 lung
[24] = test system: OVCAR-3 ovarian
[25] = test system: OVCAR-4 ovarian
[26] = test system: OVCAR-5 ovarian
[27] = test system: OVCAR-8 ovarian
[28] = test system: RPMI-8226 leukemia
[29] = test system: RXF 393 renal
[30] = test system: SF-295 CNS
[31] = test system: SF-539 CNS
[32] = test system: SK-MEL-2 melanoma
[33] = test system: SK-MEL-28 melanoma
[34] = test system: SN12C renal
[35] = test system: SNB-19 CNS
[36] = test system: SNB-78 CNS
[37] = test system: SR leukemia
[38] = test system: SW-620 colon
[39] = test system: TK-10 renal
[40] = test system: U251 CNS
[41] = test system: UACC-257 melanoma
[42] = test system: UO-31 renal
[43] = test system: A498 renal
[44] = test system: A549 NSCLC
[45] = test system: DLD-1 colon
[46] = test system: HCT-116 colon
[47] = test system: HL-60(TB) leukemia
[48] = test system: HOP-62 NSCLC
[49] = test system: HOP-92 NSCLC
[50] = test system: IGROV1 ovarian
[51] = test system: LOX IMVI melanoma
[52] = test system: SF-268 CNS
[53] = test system: SK-MEL-5 melanoma
[54] = test system: SK-OV-3 ovarian
[55] = test system: SNB-75 CNS
[56] = test system: UACC-62 melanoma

Compound `FC(F)(F)C1(C(F)(F)F)O[SiH]2(OC(C(F)(F)F)(C(F)(F)F)c3ccccc32)c2ccccc21` has a TGI [1] of 31700 nM, a TGI [2] of 78800 nM and a TGI [3] of 87100 nM. The TGI [4] was 45200 nM, the TGI [5] was 29100 nM and the TGI [6] was 53200 nM. It also gave a TGI [7] of 39400 nM, a TGI [8] of 37400 nM and a TGI [9] of 25900 nM. The TGI [10] was 75100 nM, the TGI [11] was 23200 nM and the TGI [12] was 31600 nM. The TGI [13] was 62500 nM, the TGI [14] was 18400 nM and the TGI [15] was 38500 nM. For the same compound, the TGI [16] was 29400 nM, the TGI [17] was 39400 nM and the TGI [18] was 42000 nM. For the same compound, the TGI [19] was 30500 nM, the TGI [20] was 20300 nM and the TGI [21] was 24500 nM. It also gave a TGI [22] of 25500 nM, a TGI [23] of 42000 nM and a TGI [24] of 40600 nM. It also gave a TGI [25] of 23400 nM, a TGI [26] of 28400 nM and a TGI [27] of 83900 nM. The TGI [28] was 97400 nM, the TGI [29] was 31200 nM and the TGI [30] was 20300 nM. The TGI [31] was 25400 nM, the TGI [32] was 49300 nM and the TGI [33] was 72600 nM. For the same compound, the TGI [34] was 63100 nM, the TGI [35] was greater than 100000 nM and the TGI [36] was 52800 nM. It also gave a TGI [37] of 37800 nM, a TGI [38] of 45400 nM and a TGI [39] of 45500 nM. For the same compound, the TGI [40] was 19600 nM, the TGI [41] was 54600 nM and the TGI [42] was 30700 nM.
`COc1cc(C2c3cc4c(cc3[C@@H](NCCCN(C)C)[C@H]3COC(=O)C23)OCO4)cc(OC)c1O` (some centres not stated) was tested, and the GI50 [43] was 83.8 nM and 190 nM, the TGI [43] was 327 nM and 696 nM and the GI50 [44] was 30 nM. For the same compound, the TGI [44] was 712 nM, the TGI [2] was 369 nM and 496 nM and the GI50 [3] was 59.9 nM and 227 nM. The TGI [3] was 351 nM and 952 nM, the GI50 [4] was 714 nM and 1940 nM and the TGI [4] was 3930 nM and 5780 nM. For the same compound, the GI50 [45] was 1030 nM and 3780 nM, the TGI [45] was 4010 nM and > 20000 nM and the TGI [6] was 2060 nM and 2610 nM. For the same compound, the TGI [7] was 1580 nM and 1290 nM, the TGI [8] was 1480 nM and 1350 nM and the TGI [46] was 6140 nM. For the same compound, the TGI [9] was 1690 nM and 4630 nM, the TGI [47] was 231 nM and 245 nM and the GI50 [10] was 3780 nM and 1180 nM. For the same compound, the TGI [10] was > 37500 nM and 16300 nM, the GI50 [48] was 93.3 nM and 271 nM and the TGI [48] was 297 nM and 925 nM. The GI50 [49] was 95.2 nM and 482 nM, the TGI [49] was 368 nM and 1850 nM and the TGI [11] was > 37500 nM and 6090 nM. The TGI [50] was 2030 nM and 4030 nM, the GI50 [12] was 831 nM and 413 nM and the TGI [12] was > 37500 nM and 7840 nM. The TGI [13] was 2260 nM and 3610 nM, the TGI [14] was 2440 nM and 4440 nM and the TGI [51] was 927 nM and 2110 nM. For the same compound, the TGI [15] was 25700 nM and > 20000 nM, the TGI [17] was 2170 nM and 3350 nM and the TGI [18] was 1070 nM and 1440 nM. The TGI [19] was 210 nM, the GI50 [21] was 139 nM and 291 nM and the TGI [21] was 759 nM and 1560 nM. The TGI [22] was 632 nM and 336 nM, the TGI [23] was 1650 nM and 2470 nM and the TGI [24] was 1790 nM and 3760 nM. For the same compound, the TGI [26] was 2590 nM and 5520 nM, the GI50 [27] was 333 nM and 1260 nM and the TGI [27] was 1200 nM and 5090 nM. The TGI [28] was > 37500 nM and 5490 nM, the GI50 [52] was 202 nM and 591 nM and the TGI [52] was 1510 nM and 7280 nM. For the same compound, the TGI [30] was 632 nM and 1420 nM, the TGI [31] was 1050 nM and 981 nM and the GI50 [32] was 733 nM and 1960 nM. For the same compound, the TGI [32] was 1460 nM and 5090 nM, the GI50 [33] was 764 nM and 2760 nM and the TGI [33] was 2090 nM and 8620 nM. For the same compound, the TGI [53] was 825 nM and 1150 nM, the TGI [54] was 1260 nM and 1200 nM and the GI50 [34] was 117 nM and 333 nM. The TGI [34] was 502 nM and 1140 nM, the TGI [35] was 1450 nM and 1910 nM and the GI50 [55] was 393 nM and 838 nM. The TGI [55] was 4210 nM and 6840 nM, the GI50 [36] was 2600 nM and 11600 nM and the TGI [36] was greater than 37500 nM. For the same compound, the GI50 [37] was 354 nM and 54.4 nM, the TGI [38] was 1180 nM and 4270 nM and the GI50 [39] was 992 nM and 2860 nM. The TGI [39] was 5170 nM and 7610 nM, the TGI [40] was 2150 nM and 1900 nM and the GI50 [41] was 1030 nM and 2100 nM. For the same compound, the TGI [41] was 7250 nM and 10300 nM, the GI50 [56] was 112 nM and 288 nM and the TGI [56] was 643 nM and 924 nM. For the same compound, the TGI [42] was 1100 nM and 1720 nM.
